Assay results taken from PubChem BioAssay (NCI).
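Exposure lasted 48 hours, with cells grown in 96-well plates and compounds tested at five concentrations. Here, GI50 denotes the concentration required for 50% inhibition of growth. TGI is the concentration that stops growth completely.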

Assays:
Test in all cases: NCI-60 cell line screen, 48 h
786-0 renal = system: 786-0 renal
A498 renal = system: A498 renal
A549 NSCLC = system: A549 NSCLC
ACHN renal = system: ACHN renal
BT-549 breast = system: BT-549 breast
CAKI-1 renal = system: CAKI-1 renal
COLO 205 colon = system: COLO 205 colon
DU-145 prostate = system: DU-145 prostate
EKVX NSCLC = system: EKVX NSCLC
HCC-2998 colon = system: HCC-2998 colon
HCT-116 colon = system: HCT-116 colon
HCT-15 colon = system: HCT-15 colon
HL-60(TB) leukemia = system: HL-60(TB) leukemia
HOP-62 NSCLC = system: HOP-62 NSCLC
HOP-92 NSCLC = system: HOP-92 NSCLC
HS 578T breast = system: HS 578T breast
HT29 colon = system: HT29 colon
IGROV1 ovarian = system: IGROV1 ovarian
K-562 leukemia = system: K-562 leukemia
KM12 colon = system: KM12 colon
LOX IMVI melanoma = system: LOX IMVI melanoma
M14 melanoma = system: M14 melanoma
MALME-3M melanoma = system: MALME-3M melanoma
MCF7 breast = system: MCF7 breast
MDA-MB-231 breast = system: MDA-MB-231 breast
MDA-MB-435 = system: MDA-MB-435
MOLT-4 leukemia = system: MOLT-4 leukemia
NCI-H226 lung = system: NCI-H226 lung
NCI-H23 lung = system: NCI-H23 lung
NCI-H460 lung = system: NCI-H460 lung
NCI-H522 lung = system: NCI-H522 lung
NCI/ADR-RES ovarian = system: NCI/ADR-RES ovarian
OVCAR-3 ovarian = system: OVCAR-3 ovarian
OVCAR-4 ovarian = system: OVCAR-4 ovarian
OVCAR-5 ovarian = system: OVCAR-5 ovarian
OVCAR-8 ovarian = system: OVCAR-8 ovarian
PC-3 prostate = system: PC-3 prostate
RPMI-8226 leukemia = system: RPMI-8226 leukemia
RXF 393 renal = system: RXF 393 renal
SF-268 CNS = system: SF-268 CNS
SF-295 CNS = system: SF-295 CNS
SF-539 CNS = system: SF-539 CNS
SK-MEL-2 melanoma = system: SK-MEL-2 melanoma
SK-MEL-28 melanoma = system: SK-MEL-28 melanoma
SK-MEL-5 melanoma = system: SK-MEL-5 melanoma
SK-OV-3 ovarian = system: SK-OV-3 ovarian
SN12C renal = system: SN12C renal
SNB-19 CNS = system: SNB-19 CNS
SNB-75 CNS = system: SNB-75 CNS
SR leukemia = system: SR leukemia
SW-620 colon = system: SW-620 colon
T-47D breast = system: T-47D breast
TK-10 renal = system: TK-10 renal
U251 CNS = system: U251 CNS
UACC-257 melanoma = system: UACC-257 melanoma
UACC-62 melanoma = system: UACC-62 melanoma
UO-31 renal = system: UO-31 renal

N[C@@H](CSSC[C@H](N)C(=O)N1CCn2cc(-c3ccccc3)nc2[C@@H]1CC1CCCCC1)C(=O)N1CCn2cc(-c3ccccc3)nc2[C@@H]1CC1CCCCC1
GI50 (786-0 renal): 2.12 µM
TGI (786-0 renal): 4.52 µM
GI50 (A498 renal): 2.68 µM
TGI (A498 renal): 5.39 µM
GI50 (A549 NSCLC): 1.37 µM
TGI (A549 NSCLC): 3.05 µM
GI50 (ACHN renal): 1.77 µM
TGI (ACHN renal): 3.81 µM
GI50 (BT-549 breast): 2.23 µM
TGI (BT-549 breast): 3.91 µM
GI50 (CAKI-1 renal): 1.91 µM
TGI (CAKI-1 renal): 4.6 µM
GI50 (COLO 205 colon): 1.79 µM
TGI (COLO 205 colon): 3.27 µM
GI50 (DU-145 prostate): 2.45 µM
TGI (DU-145 prostate): 8.65 µM
GI50 (EKVX NSCLC): 1.34 µM
TGI (EKVX NSCLC): 2.81 µM
GI50 (HCC-2998 colon): 1.66 µM
TGI (HCC-2998 colon): 3.17 µM
GI50 (HCT-116 colon): 1.14 µM
TGI (HCT-116 colon): 2.51 µM
GI50 (HCT-15 colon): 1.82 µM
TGI (HCT-15 colon): 3.71 µM
GI50 (HL-60(TB) leukemia): 2.13 µM
TGI (HL-60(TB) leukemia): > 19.7 µM
GI50 (HOP-62 NSCLC): 1.59 µM
TGI (HOP-62 NSCLC): 3.25 µM
GI50 (HOP-92 NSCLC): 2.45 µM
TGI (HOP-92 NSCLC): 5.8 µM
GI50 (HS 578T breast): 3.1 µM
TGI (HS 578T breast): > 100 µM
GI50 (HT29 colon): 1.63 µM
TGI (HT29 colon): 3.42 µM
GI50 (IGROV1 ovarian): 2.41 µM
TGI (IGROV1 ovarian): 5.96 µM
GI50 (K-562 leukemia): 1.48 µM
TGI (K-562 leukemia): > 100 µM
GI50 (KM12 colon): 0.91 µM
TGI (KM12 colon): 2.47 µM
GI50 (LOX IMVI melanoma): 1.34 µM
TGI (LOX IMVI melanoma): 2.99 µM
GI50 (M14 melanoma): 0.301 µM
TGI (M14 melanoma): 1.23 µM
GI50 (MALME-3M melanoma): 1.5 µM
TGI (MALME-3M melanoma): 2.99 µM
GI50 (MCF7 breast): 1.42 µM
TGI (MCF7 breast): 2.85 µM
GI50 (MDA-MB-231 breast): 1.74 µM
TGI (MDA-MB-231 breast): 3.68 µM
GI50 (MDA-MB-435): 0.331 µM
TGI (MDA-MB-435): 1.45 µM
GI50 (MOLT-4 leukemia): 1.74 µM
TGI (MOLT-4 leukemia): > 21.4 µM
GI50 (NCI-H226 lung): 2.02 µM
TGI (NCI-H226 lung): 4.09 µM
GI50 (NCI-H23 lung): 1.41 µM
TGI (NCI-H23 lung): 3.14 µM
GI50 (NCI-H460 lung): 1.92 µM
TGI (NCI-H460 lung): 6.4 µM
GI50 (NCI-H522 lung): 1.68 µM
TGI (NCI-H522 lung): 3.39 µM
GI50 (NCI/ADR-RES ovarian): 2.95 µM
TGI (NCI/ADR-RES ovarian): 9.32 µM
GI50 (OVCAR-3 ovarian): 1.41 µM
TGI (OVCAR-3 ovarian): 2.76 µM
GI50 (OVCAR-4 ovarian): 2.15 µM
TGI (OVCAR-4 ovarian): 4.8 µM
GI50 (OVCAR-5 ovarian): 2.23 µM
TGI (OVCAR-5 ovarian): 6.39 µM
GI50 (OVCAR-8 ovarian): 1.87 µM
TGI (OVCAR-8 ovarian): 5.76 µM
GI50 (PC-3 prostate): 2.91 µM
TGI (PC-3 prostate): 9.62 µM
GI50 (RPMI-8226 leukemia): 2.35 µM
TGI (RPMI-8226 leukemia): 5.68 µM
GI50 (RXF 393 renal): 1.63 µM
TGI (RXF 393 renal): 3.1 µM
GI50 (SF-268 CNS): 0.344 µM
TGI (SF-268 CNS): 2.46 µM
GI50 (SF-295 CNS): 1.83 µM
TGI (SF-295 CNS): 3.41 µM
GI50 (SF-539 CNS): 1.75 µM
TGI (SF-539 CNS): 3.55 µM
GI50 (SK-MEL-2 melanoma): 0.837 µM
TGI (SK-MEL-2 melanoma): 2.28 µM
GI50 (SK-MEL-28 melanoma): 0.529 µM
TGI (SK-MEL-28 melanoma): 1.96 µM
GI50 (SK-MEL-5 melanoma): 0.361 µM
TGI (SK-MEL-5 melanoma): 1.53 µM
GI50 (SK-OV-3 ovarian): 1.59 µM
TGI (SK-OV-3 ovarian): 5.42 µM
GI50 (SN12C renal): 1.62 µM
TGI (SN12C renal): 3.56 µM
GI50 (SNB-19 CNS): 1.36 µM
TGI (SNB-19 CNS): 2.85 µM
GI50 (SNB-75 CNS): 1.79 µM
TGI (SNB-75 CNS): 3.3 µM
GI50 (SR leukemia): 1.38 µM
GI50 (SW-620 colon): 1.24 µM
TGI (SW-620 colon): 3.36 µM
GI50 (T-47D breast): 0.543 µM
TGI (T-47D breast): 2.02 µM
GI50 (TK-10 renal): 2.05 µM
TGI (TK-10 renal): 4.45 µM
GI50 (U251 CNS): 1.37 µM
TGI (U251 CNS): 2.76 µM
GI50 (UACC-257 melanoma): 1.4 µM
TGI (UACC-257 melanoma): 3.32 µM
GI50 (UACC-62 melanoma): 0.843 µM
TGI (UACC-62 melanoma): 2.32 µM
GI50 (UO-31 renal): 1.69 µM
TGI (UO-31 renal): 3.61 µM
